Test results as given in publication PMC10970734, “Identification of an Intravenous Injectable NK1 Receptor Antagonist for Use in Traumatic Brain Injury” (International Journal of Molecular Sciences, 2024).
pKi: −log10 of the molar value.

Assays:
[1] = target: T1, recombinant human NK3 receptor (Homo sapiens, UniProt P29371); experiment: Radioligand binding, recombinant human NK3 receptor
T1 sequence (P29371 1-465): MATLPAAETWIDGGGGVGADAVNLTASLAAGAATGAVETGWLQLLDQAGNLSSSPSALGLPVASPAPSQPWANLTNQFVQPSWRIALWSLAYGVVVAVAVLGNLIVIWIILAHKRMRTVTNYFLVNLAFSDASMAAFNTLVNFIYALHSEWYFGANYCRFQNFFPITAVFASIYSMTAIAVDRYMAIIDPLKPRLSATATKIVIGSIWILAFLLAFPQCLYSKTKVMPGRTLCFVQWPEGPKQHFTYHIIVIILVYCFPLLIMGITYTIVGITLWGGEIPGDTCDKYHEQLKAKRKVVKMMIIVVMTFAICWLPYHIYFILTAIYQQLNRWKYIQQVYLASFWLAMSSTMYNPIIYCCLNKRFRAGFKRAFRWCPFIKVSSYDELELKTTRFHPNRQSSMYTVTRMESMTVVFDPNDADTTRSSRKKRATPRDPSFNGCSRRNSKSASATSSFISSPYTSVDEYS

rodent model of TBI [2] = experiment: Cognitive function after TBI, Barnes maze; assay type: in vivo, Sprague Dawley rats; settings: rat TBI, 10 mg/kg 30 min post-injury, 10 days
Description: Cognitive outcome was assessed using the Barnes maze in order to reduce the potential confounding effects that may be associated with tests such as the Morris water maze. In the Barnes maze, animals were placed under a cover in the centre of an elevated 1.2 m diameter board containing 19 holes around the periphery. One hole contained the entrance to a darkened escape tunnel that was not visible from the surface, relying on the animal to use surrounding visual cues to locate the tunnel. The time, in seconds, for the animal to locate and enter the escape tunnel was recorded. Following pre-training, the effect of injury, and post-injury treatment, on the time taken for the animal to locate the tunnel was measured (Figure 7). […]
Injury was induced in halothane-anesthetized (ProVet) male Sprague Dawley rats (400 ± 20 g) using acceleration-induced impact TBI [29, 93]. […] Blood pressure was monitored, both before and after injury, using a femoral arterial line. […]
Motor and cognitive outcomes in animals (n = 6 per group) were assessed using the rotarod and Barnes maze, respectively, as described in detail elsewhere. […] The rotational speed of the device was increased from 0 to 30 r.p.m. and the duration (in seconds) when the animals either completed the task, fell from the rods, or gripped the rods and spun for two consecutive revolutions rather than walking actively was recorded as the rotarod score. […]

rodent model of TBI [3] = experiment: Cerebral oedema after TBI, wet weight-dry weight method; assay type: in vivo, Sprague Dawley rats; settings: rat TBI, 10 mg/kg 30 min post-injury, tissues 6 h post-injury
Description: The BBB dysfunction that follows acute CNS injuries can contribute to significant complications, such as cerebral oedema and raised intracranial pressure (ICP). The development of cerebral oedema was assessed using the wet weight–dry weight method, with tissues collected 6 h post-injury.
Injury was induced in halothane-anesthetized (ProVet) male Sprague Dawley rats (400 ± 20 g) using acceleration-induced impact TBI [29, 93]. This model involves impacting a 10 mm diameter, 3 mm thick stainless steel disc fixed centrally to the exposed skull between the lambda and bregma with an accelerating impactor. The impactor was a 450 g brass weight dropped from a height of 2 m. Earlier studies have shown that the impact acceleration injury produces diffuse axonal injury, oedema, BBB opening, Mg^2+ decline, and moderate-to-severe neurologic deficits. All animals were fed and watered ad libitum before the induction of injury. During both surgery and the immediate recovery phase, rat rectal temperature was maintained using a thermostatically controlled heating pad. […] Blood pressure was monitored, both before and after injury, using a femoral arterial line. […]
The amount of oedema development was calculated using the wet weight–dry weight method. […] Edema in each brain sample was calculated using the wet–dry method formula:%Water = (Wet Weight − Dry Weight)/Wet Weight × 100

Cc1ccccc1-c1cc(N2CCN(C)CC2)ncc1C(=O)N(C)Cc1cc(C(F)(F)F)cc(C(F)(F)F)c1 [EUC-001, N-(3,5-Bis-trifluoromethyl-benzyl)-N-methyl-6-(4-methyl-piperazine-1-yl)-4-o-tolyl-nicotinamide]
pKi [1]: 4.77 | Cognitive function, Barnes maze time to locate escape tunnel (rodent model of TBI [2]): minimal impact on the performance time | Brain tissue water content (cerebral oedema) (rodent model of TBI [3]): not significantly different from sham
